Measured values: ChEMBL document CHEMBL3885861, “Open TG-GATES”

Species on record: Rattus norvegicus
Assay: Open TG-GATES - Regimen: Single
Assay type: toxicity, organism-based, Sprague-Dawley
Set-up: regimen Single, gender Male, age 6 weeks
Conditions: in vivo, po, 4000 mg/kg, route gavage, dose level High; for APTT / Bas / Eos / Fbg / Hb / Ht / Lym / MCH / MCHC / MCV / Mono / Neu / PT / Plat / RBC / Ret / WBC: tissue Blood; for KIDNEY_L / KIDNEY_R / KIDNEY_TOTAL: tissue Kidney; for LIVER: tissue Liver; for A/G / ALP / ALT / AST / BUN / CRE / Ca / Cl / DBIL / GLC / IP / K / LDH / Na / PL / RALB / TBIL / TC / TG / TP / gamma-GTP: tissue Plasma

Question: Which results are given for `CCO` [ALCOHOL]?
Answer: TERMINAL_BW (3 h): 206.9 g; APTT (3 h): 17.9 s; Bas (3 h): 0%; Eos (3 h): 1.6%; Fbg (3 h): 188.4 mg/dL; Hb (3 h): 13.4 g/dL; Ht (3 h): 40.1%; Lym (3 h): 78%; MCH (3 h): 21.9 pg; MCHC (3 h): 33.4%; MCV (3 h): 65.6 fL; Mono (3 h): 7.2%; Neu (3 h): 13.8%; PT (3 h): 12.2 s; Plat (3 h): 110.6 x10_4/uL; RBC (3 h): 612.2 x10_4/ul; Ret (3 h): 9.9%; WBC (3 h): 86.8 x10_2/uL; KIDNEY_L (3 h): 1 g; KIDNEY_R (3 h): 1 g; KIDNEY_TOTAL (3 h): 1.9 g; LIVER (3 h): 9.6 g; A/G (3 h): 2.5; ALP (3 h): 733.4 IU/L; ALT (3 h): 35.2 IU/L; AST (3 h): 65.8 IU/L; BUN (3 h): 8.8 mg/dL; CRE (3 h): 0.5 mg/dL; Ca (3 h): 10.3 mg/dL; Cl (3 h): 104.4 meq/L; DBIL (3 h): 0.02 mg/dL; GLC (3 h): 212.4 mg/dL; IP (3 h): 9.1 mg/dL; K (3 h): 4.7 meq/L; LDH (3 h): 106.2 IU/L; Na (3 h): 139.8 meq/L; PL (3 h): 148.4 mg/dL; RALB (3 h): 3.8 g/dL; TBIL (3 h): 0.4 mg/dL; TC (3 h): 79.8 mg/dL; TG (3 h): 77.8 mg/dL; TP (3 h): 5.3 g/dL; gamma-GTP (3 h): 1.8 IU/L; TERMINAL_BW (6 h): 206.9 g; APTT (6 h): 19.1 s; Bas (6 h): 0%; Eos (6 h): 1.2%; Fbg (6 h): 205 mg/dL; Hb (6 h): 13.5 g/dL; Ht (6 h): 40.4%; Lym (6 h): 81%; MCH (6 h): 21.3 pg; MCHC (6 h): 33.4%; MCV (6 h): 63.9 fL; Mono (6 h): 4.6%; Neu (6 h): 13.4%; PT (6 h): 11.8 s; Plat (6 h): 112.3 x10_4/uL; RBC (6 h): 632.8 x10_4/ul; Ret (6 h): 13.6%; WBC (6 h): 124.9 x10_2/uL; KIDNEY_L (6 h): 1 g; KIDNEY_R (6 h): 1 g; KIDNEY_TOTAL (6 h): 1.9 g; LIVER (6 h): 9.6 g; A/G (6 h): 2.3; ALP (6 h): 839.4 IU/L; ALT (6 h): 31 IU/L; AST (6 h): 59.4 IU/L; BUN (6 h): 8.6 mg/dL; CRE (6 h): 0.5 mg/dL; Ca (6 h): 10.4 mg/dL; Cl (6 h): 104.2 meq/L; DBIL (6 h): 0.078 mg/dL; GLC (6 h): 204.6 mg/dL; IP (6 h): 9.7 mg/dL; K (6 h): 5 meq/L; LDH (6 h): 78 IU/L; Na (6 h): 139 meq/L; PL (6 h): 153.6 mg/dL; RALB (6 h): 3.7 g/dL; TBIL (6 h): 0.4 mg/dL; TC (6 h): 82.6 mg/dL; TG (6 h): 46 mg/dL; TP (6 h): 5.4 g/dL; gamma-GTP (6 h): 1.4 IU/L; TERMINAL_BW (9 h): 200.3 g; APTT (9 h): 17.6 s; Bas (9 h): 0%; Eos (9 h): 1%; Fbg (9 h): 205.2 mg/dL; Hb (9 h): 13.5 g/dL; Ht (9 h): 40.5%; Lym (9 h): 76.4%; MCH (9 h): 21.8 pg; MCHC (9 h): 33.4%; MCV (9 h): 65.3 fL; Mono (9 h): 7%; Neu (9 h): 15.6%; PT (9 h): 12 s; Plat (9 h): 107.8 x10_4/uL; RBC (9 h): 621.6 x10_4/ul; Ret (9 h): 9.9%; WBC (9 h): 72.9 x10_2/uL; KIDNEY_L (9 h): 0.9 g; KIDNEY_R (9 h): 1 g; KIDNEY_TOTAL (9 h): 1.9 g; LIVER (9 h): 8.2 g; A/G (9 h): 2.7; ALP (9 h): 857.6 IU/L; ALT (9 h): 30.6 IU/L; AST (9 h): 65.8 IU/L; BUN (9 h): 12.8 mg/dL; CRE (9 h): 0.4 mg/dL; Ca (9 h): 10.8 mg/dL; Cl (9 h): 105.6 meq/L; DBIL (9 h): 0.04 mg/dL; GLC (9 h): 190.8 mg/dL; IP (9 h): 10 mg/dL; K (9 h): 5 meq/L; LDH (9 h): 96.4 IU/L; Na (9 h): 137 meq/L; PL (9 h): 154 mg/dL; RALB (9 h): 4.1 g/dL; TBIL (9 h): 0.4 mg/dL; TC (9 h): 79.8 mg/dL; TG (9 h): 49 mg/dL; TP (9 h): 5.6 g/dL; gamma-GTP (9 h): 1.4 IU/L; TERMINAL_BW (24 h): 210.8 g; APTT (24 h): 16.5 s; Bas (24 h): 0%; Eos (24 h): 2%; Fbg (24 h): 202 mg/dL; Hb (24 h): 13.8 g/dL; Ht (24 h): 40.7%; Lym (24 h): 70.4%; MCH (24 h): 21.5 pg; MCHC (24 h): 33.8%; MCV (24 h): 63.5 fL; Mono (24 h): 11.4%; Neu (24 h): 16.4%; PT (24 h): 11.8 s; Plat (24 h): 115.4 x10_4/uL; RBC (24 h): 640.6 x10_4/ul; Ret (24 h): 10.2%; WBC (24 h): 84.1 x10_2/uL; KIDNEY_L (24 h): 0.9 g; KIDNEY_R (24 h): 1 g; KIDNEY_TOTAL (24 h): 1.9 g; LIVER (24 h): 9.5 g; A/G (24 h): 2.6; ALP (24 h): 971 IU/L; ALT (24 h): 41.8 IU/L; AST (24 h): 68.2 IU/L; BUN (24 h): 17.6 mg/dL; CRE (24 h): 0.5 mg/dL; Ca (24 h): 10.9 mg/dL; Cl (24 h): 103.4 meq/L; DBIL (24 h): 0.014 mg/dL; GLC (24 h): 200.4 mg/dL; IP (24 h): 8.5 mg/dL; K (24 h): 4.9 meq/L; LDH (24 h): 102.6 IU/L; Na (24 h): 138 meq/L; PL (24 h): 155 mg/dL; RALB (24 h): 4 g/dL; TBIL (24 h): 0.3 mg/dL; TC (24 h): 80.8 mg/dL; TG (24 h): 109.8 mg/dL; TP (24 h): 5.5 g/dL; gamma-GTP (24 h): 1.2 IU/L
